Experimental findings from patent US10118935B2, “Melampomagnolide B dimers” (priority 2014, dated 2018) are described below.

The subject of data set [1] is M9ENL AML cell lines. Particulars: for potency relative to parthenolide and MMB: M9 ENL cell lines; for EC50: Table 5, cell line not given; for CC50: read-out: LC50, M9ENL AML cell lines, after 24 hours of drug exposure.
Data set [2] has as its system AML cell line AML 123009. Particulars: for cytotoxicity relative to PTL: AML 123009, FIG. 6; for EC50: read-out: Viability EC50, AML cell line 123009.
Data set [3] has as its system M9ENL AML cell lines. Description: cells. As to conditions: Table 5; cell line not given.

Where two headings read alike, the source gives them in different places.

For the compound `C=C1C(=O)OC2C1CCC(C(=O)NCCCCCCCCCNC(=O)C1=CCCC3(C)OC3C3OC(=O)C(=C)C3CC1)=CCCC1(C)OC21` [JVM 3-82, (1aR,1a′R,4E,4′E,7aS,7a′S,10aS,10bS,10a′S,10b′S)—N,N′-(nonane-1,9-diyl)bis(1a-methyl-8-methylene-9-oxo-1a,2,3,6,7,7a,8,9,10a,10b-decahydrooxireno[2 ′,3 ′9,10]cyclodeca[1,2-b]furan-5-carboxamide)], the “potency relative to parthenolide and MMB” value in data set [1] was “more potency than parthenolide and MMB”.
The same measure, in the same setting: as for `C=C1C(=O)OC2C1CCC(C(=O)NCCCCCCCNC(=O)C1=CCCC3(C)OC3C3OC(=O)C(=C)C3CC1)=CCCC1(C)OC21` [JVM 3-84, (1aR,1a′R,4E,4′E,7aS,7a′S,10aS,10bS,10a′S,10b′S)—N,N′-(heptane-1,7-diyl)bis(1a-methyl-8-methylene-9-oxo-1a,2,3,6,7,7a,8,9,10a,10b-decahydrooxireno[2′,3′:9,10]cyclodeca[1,2-b]furan-5-carboxamide)], the entry is “more potency than parthenolide and MMB”.
Consider `C=C1C(=O)O[C@H]2[C@H]1CC/C(C(=O)NCCCCCCCCCCNC(=O)/C1=C/CC[C@@]3(C)O[C@H]3[C@H]3OC(=O)C(=C)[C@@H]3CC1)=C\CC[C@@]1(C)O[C@@H]21` [JVM 3-83, (1aR,1a′R,4E,4′E,7aS,7a′S,10aS, 10bS, 10a′S, 10b′S)—N,N′-(decane-1,10-diyl)bis(1a-methyl-8-methylene-9-oxo-1a,2,3,6,7,7a,8,9,10a,10b-decahydrooxireno[2′,3′:9,10]cyclodeca[1,2-b]furan-5-carboxamide)], for which, in data set [1], the “potency relative to parthenolide and MMB” value is “more potency than parthenolide and MMB”; the response was half-maximal at 2800 nM (EC50). For the same compound, in data set [2], the “cytotoxicity relative to PTL” value is reported as “enhanced cytotoxicity relative to PTL” and the concentration giving a half-maximal response (EC50) (as a rule, the concentration at which the effect is half-maximal) is 2800 nM.
In data set [3], `C=C1C(=O)O[C@H]2[C@H]1CC/C(COC(=O)NCCCCCCCCNCC1C(=O)O[C@H]3[C@H]1CC/C(COC(=O)NCCCCCCCCNC(=O)OC/C1=C/CC[C@@]4(C)O[C@H]4[C@H]4OC(=O)[C@@H](CNCCCCCCCCNC(=O)OC/C5=C/CC[C@@]6(C)O[C@H]6[C@H]6OC(=O)C(=C)[C@@H]6CC5)[C@@H]4CC1)=C\CC[C@@]1(C)O[C@@H]31)=C\CC[C@@]1(C)O[C@@H]21` (stereo partly drawn) [JVM 3-62-1] displayed an EC50 of 1700 nM.
For `C=C1C(=O)O[C@H]2[C@H]1CC/C(COC(=O)NCCC(O)CCNC(=O)OC/C1=C/CC[C@@]3(C)O[C@H]3[C@H]3OC(=O)C(=C)[C@@H]3CC1)=C\CC[C@@]1(C)O[C@@H]21` (stereo partly drawn) [BS-3-24], it took 9030 nM to reach a half-maximal effect in data set [3] (EC50).
Turning to `C=C1C(=O)O[C@H]2[C@H]1CC/C(COC(=O)NCCCCCCCCCCNC(=O)OC/C1=C/CC[C@@]3(C)O[C@H]3[C@H]3OC(=O)C(=C)[C@@H]3CC1)=C\CC[C@@]1(C)O[C@@H]21` [JVM 3-65, bis(((1aR,7aS,10aS, 10bS,E)-1a-Methyl-8-methylene-9-oxo-1a,2,3,6,7,7a,8,9,10a,10b-decahydrooxireno[2,3′:9,10]cyclodeca[1,2-b]furan-5-yl)methyl)decane-1,10-diyldicarbamate], in data set [1], the CC50 was found to be 1600 nM.
In turn, `C[C@@]12CC/C=C3\CC[C@@H]4[C@H](OC(=O)[C@H]4CNCCCCCCCCNC[C@@H]4C(=O)O[C@H]5[C@H]4CC/C(=C\CC[C@@]4(C)O[C@@H]54)COC(=O)NCCCCCCCCNC(=O)OC3)[C@@H]1O2` [JVM 3-62-2] came in with an EC50 in data set [3] of 38000 nM.
In turn, `CN(C)CC1C(=O)O[C@H]2[C@H]1CC/C(COC(=O)NCCCCCCCCNC(=O)OC/C1=C/CC[C@@]3(C)O[C@H]3[C@H]3OC(=O)C(CN(C)C)[C@@H]3CC1)=C\CC[C@@]1(C)O[C@@H]21` (single isomer, unassigned) [JVM 3-62B] returned an EC50 in data set [1] of 1200 nM.
Regarding `C=C1C(=O)OC2C1CCC(C(=O)NCCCCCCCCNC(=O)C1=CCCC3(C)OC3C3OC(=O)C(=C)C3CC1)=CCCC1(C)OC21` [JVM 3-78, (1aR,1a′R,4E,4′E,7aS,7a′S, 10aS, 10bS, 10a′S, 10b′S)—N,N′-(octane-1,8-diyl)bis(1a-methyl-8-methylene-9-oxo-1a,2,3,6,7,7a,8,9,10a,10b-decahydrooxireno[2′,3′:9,10]cyclodeca[1,2-b]furan-5-carboxamide)], the “potency relative to parthenolide and MMB” value in data set [1] was “more potency than parthenolide and MMB”.
As to `C=C1C(=O)OC2C1CCC(COC(=O)NCCCCCCCCCNC(=O)OCC1=CCCC3(C)OC3C3OC(=O)C(=C)C3CC1)=CCCC1(C)OC21` [JVM 3-61, bis(((1aR,7aS, 10aS, 10bS, E)-1a-Methyl-8-methylene-9-oxo-1a,2,3,6,7,7a,8,9,10a, 1b-decahydrooxireno[2′,3′:9,10]cyclodeca[1,2-b]furan-5-yl)methyl)nonane-1,9-diyldicarbamate], the CC50 in data set [1] was found to be 1800 nM.
As for `C=C1C(=O)O[C@H]2[C@H]1CC/C(COC(=O)OCCC(CCOC(=O)OC/C1=C/CC[C@@]3(C)O[C@H]3[C@H]3OC(=O)C(=C)[C@@H]3CC1)O[Si](C)(C)C(C)(C)C)=C\CC[C@@]1(C)O[C@@H]21` (stereo partly drawn) [BS-3-14], the response in data set [3] was half-maximal at 1110 nM (EC50).
Take `C=C1C(=O)OC2C1CCC(COC(=O)NCCCCCCCNC(=O)OCC1=CCCC3(C)OC3C3OC(=O)C(=C)C3CC1)=CCCC1(C)OC21` [JVM 3-58, bis(((1aR,7aS, 10aS, 10bS, E)-1a-Methyl-8-methylene-9-oxo-1a,2,3,6,7,7a,8,9,10a,10b-decahydrooxireno[2′,3′:9,10]cyclodeca[1,2-b]furan-5-yl)methyl)heptane-1,7-diyldicarbamate]: in data set [1], the CC50 came to 1200 nM.
The compound `C=C1C(=O)O[C@H]2[C@H]1CC/C(COC(=O)OCCC(CCO)OCCCCCCCCCCn1cc(CNC(=O)CCCCC3SCC4NC(=O)NC43)nn1)=C\CC[C@@]1(C)O[C@@H]21` (stereo partly drawn) [BS-4-38b] had a 50% effective concentration (EC50) in data set [3] of 30000 nM.
Compound `C=C1C(=O)OC2C1CCC(COC(=O)OCCCCOC(=O)OCC1=CCCC3(C)OC3C3OC(=O)C(=C)C3CC1)=CCCC1(C)OC21` [JVM 3-91A, butane-1,4-diylbis(((1aR,7aS,10aS,10bS,E)-1a-methyl-8-methylene-9-oxo-1a,2,3,6,7,7a, 8,9,10a,10b-decahydrooxireno[2′,3′:9,10]cyclodeca[1,2-b]furan-5-yl)methyl)dicarbonate] displayed an EC50 in data set [1] of 930 nM. In addition, in data set [2], the “cytotoxicity relative to PTL” value is “enhanced cytotoxicity relative to PTL” and the EC50 worked out at 930 nM.
Regarding `C=C1C(=O)OC2C1CCC(COC(=O)NCCCNC(=O)OCC1=CCCC3(C)OC3C3OC(=O)C(=C)C3CC1)=CCCC1(C)OC21` [JVM 3-55, bis(((1aR,7aS,10aS,10bS,E)-1a-Methyl-8-methylene-9-oxo-1a,2,3,6,7,7a,8,9,10a,10b-decahydrooxireno[2′,3′:9,10]cyclodeca[1,2-b]furan-5-yl)methyl)propane-1,3-diyldicarbamate], in data set [1], the CC50 is 560 nM.
In the case of `C=C1C(=O)O[C@H]2[C@H]1CC/C(COC(=O)CC(=O)OC/C1=C/CC[C@@]3(C)O[C@H]3[C@H]3OC(=O)C(=C)[C@@H]3CC1)=C\CC[C@@]1(C)O[C@@H]21` [JVM 3-99, bis(((1aR,7aS,10aS,10bS,E)-1a-methyl-8-methylene-9-oxo-1a,2,3,6,7,7a,8,9,10a, 1b-decahydrooxireno[2′,3′:9,10]cyclodeca[1,2-b]furan-5-yl)methyl)malonate], the 50% effective concentration (EC50) in data set [1] and in data set [2] was 1000 nM each time. For the same compound, the “cytotoxicity relative to PTL” value in data set [2] is on record as “enhanced cytotoxicity relative to PTL”.
With `C=C1C(=O)O[C@H]2[C@H]1CC/C(Cn1cc(-c3cccc(-c4cn(C/C5=C/CC[C@@]6(C)O[C@H]6[C@H]6OC(=O)C(=C)[C@@H]6CC5)nn4)c3)nn1)=C\CC[C@@]1(C)O[C@@H]21` [JVM 4-41A], the EC50 in data set [3] was 2300 nM.
Same read-out and setting: as for `CN(C)CC1C(=O)O[C@H]2[C@H]1CC/C(COC(=O)OC/C1=C/CC[C@@]3(C)O[C@H]3[C@H]3OC(=O)C(CN(C)C)[C@@H]3CC1)=C\CC[C@@]1(C)O[C@@H]21` (stereo partly drawn) [JVM 3-55 B], the figure is 5100 nM.
Take `C=C1C(=O)OC2C1CCC(COC(=O)NCCCCCCNC(=O)OCC1=CCCC3(C)OC3C3OC(=O)C(=C)C3CC1)=CCCC1(C)OC21` [JVM 3-64, bis(((1aR,7aS,10aS,10bS,E)-1a-Methyl-8-methylene-9-oxo-1a,2,3,6,7,7a,8,9,10a,10b-decahydrooxireno[2′,3′:9,10]cyclodeca[1,2-b]furan-5-yl)methyl)hexane-1,6-diyldicarbamate]: in data set [1], the CC50 worked out at 340 nM.
Consider `CN(C)CC1C(=O)O[C@H]2[C@H]1CC/C(COC(=O)NCCCCCCCCNC(=O)OC/C1=C/CC[C@@]3(C)O[C@H]3[C@H]3OC(=O)C(CN(C)C)[C@@H]3CC1)=C\CC[C@@]1(C)O[C@@H]21` (single isomer, unassigned) [JVM 3-62A], for which it took 1300 nM to reach a half-maximal effect in data set [3] (EC50).
On the same count and under the same terms, as for `C=C1C(=O)O[C@H]2[C@H]1CC/C(Cn1cc(CCCc3cn(C/C4=C/CC[C@@]5(C)O[C@H]5[C@H]5OC(=O)C(=C)[C@@H]5CC4)nn3)nn1)=C\CC[C@@]1(C)O[C@@H]21` [JVM 4-51], the figure is 4000 nM.
The same measure, in the same setting: under `C=C1C(=O)O[C@H]2[C@H]1CC/C(COC(=O)OCCC(CCOC(=O)OC/C1=C/CC[C@@]3(C)O[C@H]3[C@H]3OC(=O)C(=C)[C@@H]3CC1)OCCCCCCCCCCn1cc(CNC(=O)CCCCC3SCC4NC(=O)NC43)nn1)=C\CC[C@@]1(C)O[C@@H]21` (stereo partly drawn) [BS-4-38a] stands 20000 nM; under `C=C1C(=O)O[C@H]2[C@H]1CC/C(Cn1cc(CNCc3cn(C/C4=C/CC[C@@]5(C)O[C@H]5[C@H]5OC(=O)C(=C)[C@@H]5CC4)nn3)nn1)=C\CC[C@@]1(C)O[C@@H]21` [JVM 4-44], 51600 nM.
